Target: T1, epithelial sodium channel (ENaC) (Homo sapiens, UniProt P37088+P51168+P51170)
T1 construct: host or cells: primary human bronchial epithelial cells (HBECs), differentiated at air-liquid interface
T1 sequence (P37088 1-669): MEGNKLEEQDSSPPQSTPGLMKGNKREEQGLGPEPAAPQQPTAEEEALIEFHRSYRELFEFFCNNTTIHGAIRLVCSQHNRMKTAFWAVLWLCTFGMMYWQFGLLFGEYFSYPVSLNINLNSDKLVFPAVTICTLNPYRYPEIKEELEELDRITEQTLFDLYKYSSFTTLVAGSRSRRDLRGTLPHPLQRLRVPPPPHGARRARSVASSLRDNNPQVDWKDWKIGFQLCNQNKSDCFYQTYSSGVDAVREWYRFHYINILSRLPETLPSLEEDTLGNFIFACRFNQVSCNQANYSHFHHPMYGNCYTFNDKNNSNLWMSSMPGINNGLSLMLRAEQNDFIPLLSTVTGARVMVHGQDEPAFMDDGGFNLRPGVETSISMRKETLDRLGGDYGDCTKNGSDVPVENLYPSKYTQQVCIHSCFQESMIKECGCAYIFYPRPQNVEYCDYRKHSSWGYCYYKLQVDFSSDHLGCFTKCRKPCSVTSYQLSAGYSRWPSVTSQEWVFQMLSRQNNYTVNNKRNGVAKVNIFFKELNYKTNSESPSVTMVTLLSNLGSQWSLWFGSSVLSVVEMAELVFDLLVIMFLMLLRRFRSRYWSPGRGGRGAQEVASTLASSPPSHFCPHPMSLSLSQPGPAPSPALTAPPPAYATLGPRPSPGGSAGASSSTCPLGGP
T1 sequence (P51168 1-640): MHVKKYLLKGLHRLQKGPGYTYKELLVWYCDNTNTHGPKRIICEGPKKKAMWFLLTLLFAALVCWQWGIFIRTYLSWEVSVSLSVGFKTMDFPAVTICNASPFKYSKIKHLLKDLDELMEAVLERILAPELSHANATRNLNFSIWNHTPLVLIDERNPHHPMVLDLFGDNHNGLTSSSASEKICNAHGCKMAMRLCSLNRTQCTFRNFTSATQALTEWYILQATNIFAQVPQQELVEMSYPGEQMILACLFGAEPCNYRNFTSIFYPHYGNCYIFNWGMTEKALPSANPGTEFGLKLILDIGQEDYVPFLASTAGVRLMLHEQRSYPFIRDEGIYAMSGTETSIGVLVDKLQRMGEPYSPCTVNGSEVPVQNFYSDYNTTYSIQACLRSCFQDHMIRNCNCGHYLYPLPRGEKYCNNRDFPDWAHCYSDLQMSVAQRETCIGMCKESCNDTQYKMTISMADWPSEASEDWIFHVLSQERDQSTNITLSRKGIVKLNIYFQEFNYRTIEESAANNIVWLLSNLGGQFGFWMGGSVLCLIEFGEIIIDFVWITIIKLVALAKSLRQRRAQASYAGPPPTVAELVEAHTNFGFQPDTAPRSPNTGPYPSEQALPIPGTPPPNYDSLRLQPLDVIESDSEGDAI
T1 sequence (P51170 1-649): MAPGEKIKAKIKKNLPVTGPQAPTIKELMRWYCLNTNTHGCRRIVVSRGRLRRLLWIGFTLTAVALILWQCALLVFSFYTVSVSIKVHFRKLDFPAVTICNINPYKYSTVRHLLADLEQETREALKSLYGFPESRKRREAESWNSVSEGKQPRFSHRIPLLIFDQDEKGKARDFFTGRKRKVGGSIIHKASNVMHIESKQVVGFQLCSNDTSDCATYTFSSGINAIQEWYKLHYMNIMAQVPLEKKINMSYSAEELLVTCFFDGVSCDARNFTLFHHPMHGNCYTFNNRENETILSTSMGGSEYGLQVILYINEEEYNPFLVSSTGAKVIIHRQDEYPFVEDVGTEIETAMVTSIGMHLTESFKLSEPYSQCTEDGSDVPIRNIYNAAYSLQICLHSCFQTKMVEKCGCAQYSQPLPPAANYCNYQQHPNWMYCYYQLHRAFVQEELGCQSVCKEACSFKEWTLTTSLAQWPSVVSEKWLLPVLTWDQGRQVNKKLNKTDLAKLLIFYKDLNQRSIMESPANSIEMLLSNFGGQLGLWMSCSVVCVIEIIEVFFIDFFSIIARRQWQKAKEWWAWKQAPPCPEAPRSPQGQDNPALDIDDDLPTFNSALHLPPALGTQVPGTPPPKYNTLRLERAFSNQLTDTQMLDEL
Assay: Short circuit current (ISC) measurements in human bronchial epithelial cells, inhibition of the amiloride-sensitive ISC
Type: cell-based
Settings: air-liquid interface culture, Ussing chamber, compound added to the apical chamber
Protocol: Compounds of formula (I) and their pharmaceutically acceptable salts, hereinafter referred to alternatively as “agents of the invention”, are useful as pharmaceuticals. In particular, the compounds have good ENaC blocker activity and may be tested in the following assays.
Human Bronchial Epithelial cells (HBECS) (Cambrex) were cultured under air-liquid interface conditions to provide a well differentiated mucociliary phenotype.
HBECs were cultured using a modification of the method described by Gray and colleagues (Gray et al., 1996). […]
Snapwell inserts were mounted in Vertical Diffusion Chambers (Costar) and were bathed with continuously gassed Ringer solution (5% CO2 in O2; pH 7.4) maintained at 37° C. containing (in mM): 120 NaCl, 25 NaHCO3, 3.3 KH2PO4, 0.8 K2HPO4, 1.2 CaCl2, 1.2 MgCl2, and 10 glucose. […] RT was measured by applying a 1- or 2-mV pulse at 30-s intervals and calculating RT by Ohm's law. Data were recorded using a PowerLab workstation (ADInstruments).
Test compounds were prepared as a 10 mM stock solution in DMSO (95%). […] At the completion of the concentration-response experiment, amiloride (10 μM) was added into the apical chamber to enable the total amiloride-sensitive current to be measured. […]
Results are expressed as the mean % inhibition of the amiloride-sensitive ISC. […] Cell inserts were typically run in duplicate and the IC50 calculated on the mean % inhibition data.

Compound	IC50 [nM]
N=C(NCC1CCC(CNC(=N)NC(=O)c2nc(Cl)c(N)nc2N)CC1)NC(=O)c1nc(Cl)c(N)nc1N (centres unmarked) [Example 2]	5.7
N=C(NC(=O)c1nc(Cl)c(N)nc1N)N[C@H]1CC[C@H](NC(=N)NC(=O)c2nc(Cl)c(N)nc2N)CC1 [Example 5]	0.2
